Experiment [1] addresses T1, Human Calpain 1/NS1 (Homo sapiens, UniProt P07384).
T1 sequence (P07384 1-714): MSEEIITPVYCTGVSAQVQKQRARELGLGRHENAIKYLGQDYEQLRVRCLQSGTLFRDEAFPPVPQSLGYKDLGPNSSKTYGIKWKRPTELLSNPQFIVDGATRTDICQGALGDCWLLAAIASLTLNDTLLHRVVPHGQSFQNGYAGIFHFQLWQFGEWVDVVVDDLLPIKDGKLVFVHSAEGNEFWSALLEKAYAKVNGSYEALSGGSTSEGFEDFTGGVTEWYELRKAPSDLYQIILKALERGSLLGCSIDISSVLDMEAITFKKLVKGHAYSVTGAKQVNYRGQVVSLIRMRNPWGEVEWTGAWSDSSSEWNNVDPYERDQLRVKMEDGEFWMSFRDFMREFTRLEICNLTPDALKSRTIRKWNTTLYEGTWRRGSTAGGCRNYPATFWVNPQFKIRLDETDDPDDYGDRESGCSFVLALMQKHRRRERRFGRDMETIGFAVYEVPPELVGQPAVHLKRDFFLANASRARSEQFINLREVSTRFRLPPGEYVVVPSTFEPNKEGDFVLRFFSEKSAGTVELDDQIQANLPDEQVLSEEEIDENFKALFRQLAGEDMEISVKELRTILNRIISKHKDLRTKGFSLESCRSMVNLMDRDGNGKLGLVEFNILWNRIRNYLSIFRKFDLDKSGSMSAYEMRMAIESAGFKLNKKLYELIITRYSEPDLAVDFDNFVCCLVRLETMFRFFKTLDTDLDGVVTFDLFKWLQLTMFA
T1 sequence (P04632 1-268 partner): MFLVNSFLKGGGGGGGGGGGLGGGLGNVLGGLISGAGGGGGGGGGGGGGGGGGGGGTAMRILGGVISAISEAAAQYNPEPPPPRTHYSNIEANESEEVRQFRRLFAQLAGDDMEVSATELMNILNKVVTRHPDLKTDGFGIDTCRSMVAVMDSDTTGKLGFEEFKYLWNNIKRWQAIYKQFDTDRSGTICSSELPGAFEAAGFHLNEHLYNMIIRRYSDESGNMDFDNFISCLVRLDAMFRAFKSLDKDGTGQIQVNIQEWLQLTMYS
Nature of the experiment: Calpain inhibition continuous fluorescence (FRET) assay, Human Calpain 1/NS1. It is filed as biochemical. The following applies: read-out: Human Calpain 1/NS1 IC50. An outline of the steps:
(§1)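 Buffer 50 mM Tris pH 7.5/100 mM NaCl/1 mM DTT; enzyme + cpd preinc 25C; start w/ FRET substrate + CaCl2; kinetic 490/520 nm, 10 min; slopes 1-5 min; 4-PL IC50.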

Experiment [2] concerns the target T2, Human Calpain 2/NS1 (Homo sapiens, UniProt P17655).
T2 sequence (P17655 1-700): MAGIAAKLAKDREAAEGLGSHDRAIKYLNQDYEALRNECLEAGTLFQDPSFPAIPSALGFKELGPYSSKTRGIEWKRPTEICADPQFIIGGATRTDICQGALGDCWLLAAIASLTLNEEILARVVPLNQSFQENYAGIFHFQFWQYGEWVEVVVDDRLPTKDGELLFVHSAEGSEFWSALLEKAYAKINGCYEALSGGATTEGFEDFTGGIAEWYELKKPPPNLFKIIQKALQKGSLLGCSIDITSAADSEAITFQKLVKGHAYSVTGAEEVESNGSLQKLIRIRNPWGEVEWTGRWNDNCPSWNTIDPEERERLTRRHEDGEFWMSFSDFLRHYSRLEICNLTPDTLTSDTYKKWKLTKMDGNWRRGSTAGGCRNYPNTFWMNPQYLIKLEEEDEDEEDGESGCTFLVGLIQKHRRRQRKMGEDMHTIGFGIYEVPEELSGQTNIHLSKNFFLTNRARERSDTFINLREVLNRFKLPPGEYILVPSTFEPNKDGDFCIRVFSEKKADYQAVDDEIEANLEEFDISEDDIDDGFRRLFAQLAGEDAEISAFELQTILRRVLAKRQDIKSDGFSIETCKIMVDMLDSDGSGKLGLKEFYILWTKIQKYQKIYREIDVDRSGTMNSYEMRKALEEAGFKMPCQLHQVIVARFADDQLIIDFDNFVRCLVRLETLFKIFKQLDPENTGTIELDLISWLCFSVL
T2 sequence (P04632 1-268 partner): T1 sequence (P04632 1-268 partner)
The experiment is described as follows: Calpain inhibition continuous fluorescence (FRET) assay, Human Calpain 2/NS1. The format is biochemical. The following applies: read-out: Human Calpain 2/NS1 IC50. In outline:
as §1

Experiment [3] deals with T3, Human Calpain 9/NS1 (Homo sapiens, UniProt O14815).
T3 sequence (O14815 1-690): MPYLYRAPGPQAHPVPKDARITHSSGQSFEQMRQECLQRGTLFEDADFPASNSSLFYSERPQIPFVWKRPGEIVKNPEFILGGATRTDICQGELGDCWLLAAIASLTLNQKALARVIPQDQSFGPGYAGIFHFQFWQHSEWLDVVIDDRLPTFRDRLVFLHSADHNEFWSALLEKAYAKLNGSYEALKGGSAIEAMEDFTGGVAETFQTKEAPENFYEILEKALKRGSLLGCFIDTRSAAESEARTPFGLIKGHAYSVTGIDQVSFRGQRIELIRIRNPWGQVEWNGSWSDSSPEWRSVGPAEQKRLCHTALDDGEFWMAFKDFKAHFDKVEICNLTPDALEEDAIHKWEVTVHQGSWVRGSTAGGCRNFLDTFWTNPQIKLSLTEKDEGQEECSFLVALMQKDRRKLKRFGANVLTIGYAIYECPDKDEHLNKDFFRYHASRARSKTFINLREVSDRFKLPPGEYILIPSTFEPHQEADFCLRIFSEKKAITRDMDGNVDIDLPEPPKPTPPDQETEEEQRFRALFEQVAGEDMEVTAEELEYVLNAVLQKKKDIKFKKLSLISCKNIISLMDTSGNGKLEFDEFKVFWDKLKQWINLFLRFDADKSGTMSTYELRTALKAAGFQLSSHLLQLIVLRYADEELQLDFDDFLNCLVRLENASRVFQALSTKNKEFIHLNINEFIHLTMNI
T3 sequence (P04632 1-268 partner): T1 sequence (P04632 1-268 partner)
Nature of the experiment: Calpain inhibition continuous fluorescence (FRET) assay, Human Calpain 9/NS1. It is filed as biochemical. The following applies: read-out: Human Calpain 9/NS1 IC50. An outline of the steps:
as §1

In experiment [4] the test system is Calpain activity in SH-SY5Y cells (SBDP-150). Nature of the experiment: SH-SY5Y Spectrin western blot assay (SBDP-150 breakdown product, A23187-induced). The format is cell-based. Conditions: Homo sapiens, SH-SY5Y cells, read-out: SH-SY5Y Spectrin IC50.
In experiment [5] the test system is Calpain activity in SH-SY5Y cells. Nature of the experiment: SH-SY5Y + AMC fluorescence assay (Suc-LLVY-AMC substrate). It is filed as cell-based. Conditions: read-out: SH-SY5Y + AMC IC50.
Where [6] appears, read: Column D, A23187-induced SBDP-150.
The mark [7] stands for this setting: A23187-induced SBDP-150, western blot.

Read-outs that look alike come from different tables or passages of the source. Some results are limits rather than exact numbers.

This passage reports IC50 results from patent publication US11339130B1 (Blade Therapeutics, Inc., priority 2016, dated 2022).

Take `NC(=O)C(=O)[C@H](Cc1ccccc1)NC(=O)c1c(-c2ccccc2)noc1C(F)(F)F` [Compound 278, (S)—N-(4-amino-3,4-dioxo-1-phenylbutan-2-yl)-3-phenyl-5-(trifluoromethyl)isoxazole-4-carboxamide]: the IC50 in experiment [1] (Column A) is < 3 µM; in experiment [2] (Column B), < 3 µM; in experiment [3] (Column C), < 3 µM; in experiment [4] (setting [6]), < 10 µM; in experiment [5] (Column E) it was > 25 µM.

Consider `Cc1cc(C(=O)N[C@H](C=O)Cc2ccccc2)n(-c2ccncn2)n1` [Compound 279, (S)-3-methyl-N-(1-oxo-3-phenylpropan-2-yl)-1-(pyrimidin-4-yl)-1H-pyrazole-5-carboxamide], for which the IC50 in experiment [1] (Column A) is < 3 µM; in experiment [2] (Column B) it was < 3 µM; in experiment [3] (Column C), 3 to 10 µM; in experiment [4] (setting [6]), 10 to 25 µM; in experiment [5] (Column E) it was < 10 µM.

With `Cn1nc(Cl)c(C(=O)NC(Cc2ccccc2)C(=O)C(N)=O)c1Cl` (centres unmarked) [Compound 282, N-(4-amino-3,4-dioxo-1-phenylbutan-2-yl)-3,5-dichloro-1-methyl-1H-pyrazole-4-carboxamide], the IC50 in experiment [1] (Column A) was < 3 µM; in experiment [2] (Column B) it was < 3 µM; in experiment [3] (Column C), < 3 µM; in experiment [4] (setting [6]) it was 10 to 25 µM; in experiment [5] (Column E), < 10 µM.

On to `Cc1cc(C(=O)N[C@H](C=O)Cc2ccccc2)n(-c2cnccn2)n1` [Compound 285, (S)-3-methyl-N-(1-oxo-3-phenylpropan-2-yl)-1-(pyrazin-2-yl)-1H-pyrazole-5-carboxamide], for which the IC50 in experiment [1] (Column A) is < 3 µM; in experiment [2] (Column B), < 3 µM; in experiment [3] (Column C), < 3 µM; in experiment [4] (setting [6]) it was > 25 µM; in experiment [5] (Column E) it was 10 to 25 µM.

For `NC(=O)C(=O)C(Cc1ccccc1)NC(=O)c1cc(C(F)(F)F)sc1-c1ccccc1` (centres unmarked) [Compound 286], the IC50 in experiment [1] (Column A) is < 3 µM; in experiment [2] (Column B), < 3 µM; in experiment [3] (Column C), < 3 µM; in experiment [4] (setting [6]), < 10 µM; in experiment [5] (Column E) it was > 25 µM.

In the case of `NC(=O)C(=O)[C@H](Cc1ccccc1)NC(=O)c1conc1-c1ccccn1` [Compound 288, (S)—N-(4-amino-3,4-dioxo-1-phenylbutan-2-yl)-3-(pyridin-2-yl)isoxazole-4-carboxamide], the IC50 is < 3 µM in experiment [1] (Column A); < 3 µM in experiment [2] (Column B); < 3 µM in experiment [3] (Column C); > 25 µM in experiment [4] (setting [6]); > 25 µM in experiment [5] (Column E).

As to `NC(=O)C(=O)[C@H](Cc1ccccc1)NC(=O)c1conc1-c1ccc(F)cc1` [Compound 289, (S)—N-(4-amino-3,4-dioxo-1-phenylbutan-2-yl)-3-(4-fluorophenyl)isoxazole-4-carboxamide], the IC50 in experiment [1] (Column A) was < 3 µM; in experiment [2] (Column B), < 3 µM; in experiment [3] (Column C), < 3 µM; in experiment [4] (setting [6]), 10 to 25 µM; in experiment [5] (Column E) it was > 25 µM.

For the compound `NC(=O)C(=O)[C@H](Cc1ccccc1)NC(=O)c1nonc1-c1ccccc1` [Compound 293, (S)—N-(4-amino-3,4-dioxo-1-phenylbutan-2-yl)-4-phenyl-1,2,5-oxadiazole-3-carboxamide], the IC50 is < 3 µM in experiment [1] (Column A); < 3 µM in experiment [2] (Column B); < 3 µM in experiment [3] (Column C); 10 to 25 µM in experiment [4] (setting [6]); < 10 µM in experiment [5] (Column E).

As to `Cc1cc(C(=O)N[C@@H](Cc2ccccc2)C(=O)C(N)=O)n(-c2nc3ccccc3n2C)n1` [Compound 294, (S)—N-(4-amino-3,4-dioxo-1-phenylbutan-2-yl)-3-methyl-1-(1-methyl-1H-benzo[d]imidazol-2-yl)-1H-pyrazole-5-carboxamide], the IC50 was 3 to 10 µM in experiment [1] (Column A); 3 to 10 µM in experiment [2] (Column B); < 3 µM in experiment [3] (Column C); 10 to 25 µM in experiment [4] (setting [6]); > 25 µM in experiment [5] (Column E).

On to `COc1ccc2nc(-n3nc(C(=O)N[C@@H](Cc4ccccc4)C(=O)C(N)=O)cc3C)sc2c1` [Compound 296, (S)—N-(4-amino-3,4-dioxo-1-phenylbutan-2-yl)-1-(6-methoxybenzo[d]thiazol-2-yl)-5-methyl-1H-pyrazole-3-carboxamide], for which the IC50 in experiment [1] (Column A) is < 3 µM; in experiment [2] (Column B) it was < 3 µM; in experiment [3] (Column C) it was < 3 µM; in experiment [4] (setting [6]), < 10 µM; in experiment [5] (Column E), > 25 µM.

Turning to `NC(=O)C(=O)[C@H](Cc1ccccc1)NC(=O)c1ocnc1-c1ccccc1` [Compound 303, (S)—N-(4-amino-3,4-dioxo-1-phenylbutan-2-yl)-4-phenyloxazole-5-carboxamide], the IC50 in experiment [1] (Column A) was < 3 µM; in experiment [2] (Column B) it was < 3 µM; in experiment [3] (Column C), < 3 µM; in experiment [4] (setting [6]), 10 to 25 µM; in experiment [5] (Column E), < 10 µM.

Consider `NC(=O)C(=O)[C@H](Cc1ccccc1)NC(=O)c1cn(-c2ccccc2)nc1-c1ccccc1` [Compound 309, (S)—N-(4-amino-3,4-dioxo-1-phenylbutan-2-yl)-1,3-diphenyl-1H-pyrazole-4-carboxamide], for which the IC50 in experiment [1] is < 3 µM; in experiment [2], < 3 µM; in experiment [3], < 3 µM; in experiment [4] (setting [7]) it was 10 to 25 µM; in experiment [5] it was < 10 µM.

Turning to `Cn1cc(C(=O)N[C@@H](Cc2ccccc2)C(=O)C(N)=O)c(-c2cnccn2)n1` [Compound 313, (S)—N-(4-amino-3,4-dioxo-1-phenylbutan-2-yl)-1-methyl-3-(pyrazin-2-yl)-1H-pyrazole-4-carboxamide], the IC50 in experiment [1] is < 3 µM; in experiment [2], < 3 µM; in experiment [3] it was < 3 µM; in experiment [4] (setting [7]), > 25 µM; in experiment [5], > 25 µM.
